# Data published in patent US5430042A, “Dialkoxy-pyridinyl-benzimidazole derivatives, process for their preparation and their pharmaceutical use” (priority 1990, dated 1995).
# Assays:
# [1] = system: gastric acid secretion; experiment: Inhibition of Gastric Acid Secretion in the Conscious Dog, iv; type: in vivo, dog (Harrier); conditions: Canis lupus familiaris, histamine-stimulated, acid output 2 h after dosing, read-out: Inhibition of acid secretion iv administration ED50, Dog
# Description: (§1) The potency for inhibition of acid secretion is measured in the dog, intravenously (iv) and in the female rat, intravenously (iv).
# Harrier dogs of either sex were used. They were equipped with a duodenal fistula for the administration of test compounds or vehicle and a Heidenhain-pouch for the collection of gastric secretions.
# Before secretory tests the animals were fasted for about 18 h but water was freely allowed. Gastric acid secretion was stimulated by a 4 h infusion of histamine dihydrochloride (12 ml/h) at a dose producing about 80% of the individual maximal secretory response, and gastric juice collected in consecutive 30-min fractions. Test substance or vehicle was given iv 1 h after starting the histamine infusion, in a volume of 0.5 ml/kg body weight. The acidity of the gastric juice samples were determined by titration to pH 7.0, and the acid output calculated. The acid output in the collection periods after administration of test substance or vehicle were expressed as fractional responses, setting the acid output in the fraction preceding administration to 1.0. Percentage inhibition was calculated from fractional responses elicited by test compound and vehicle. ED50 -values were obtained by graphical interpolation on log dose--response curves, or estimated from single-dose experiments under the assumption of the same slope of the dose-response curve for all test compounds. […]
# [2] = system: uptake of ^125 I in the thyroid gland; experiment: Effect on the Accumulation of ^125 I in the Thyroid Gland; type: in vivo, rat (Sprague-Dawley); conditions: oral gavage, male rat, 4 h after ^125 I
# Description: The effect of a compound within the invention of the formula I on the uptake of iodine into the thyroid gland is measured as an effect on the accumulation of ^125 I in the thyroid gland.
# The accumulation of ^125 I in the thyroid gland was studied in male, Sprague-Dawley rats which were deprived of food for 24 hours before the test. The experimental protocol of Searle, C. E. et al. (Biochem J 1950, 47:77-81) was followed.
# Test substances suspended in 0.5% buffered (pH 9) methocel, were administered by oral gavage in a volume of 5 ml/kg body weight. After 1 hour, ^125 I (300 kBqkg, 3 ml/kg) was administered by intraperitoneal injection. Four hours after ^125 I-administration, the animals were killed by CO2 -asphyxiation and bled. The thyroid gland together with a piece of the trachea was dissected out and placed in a small test tube for the assay of radioactivity in a gamma counter (LKB-Wallac model 1282 Compugamma). Percentage inhibition was calculated according to the formula 100 (1-T/P), where T and P is the mean radioactivety of thyroid glands from animals treated with test agent and placebo (buffered methocel), respectively. The statistical significane for a difference between test agent- and placebo-treated animals was assessed with the Mann-Whitney U-test (two-tailed). P<0.05 was accepted as significant.
# [3] = Chemical Stability at pH 7 in aqueous buffer; type: physicochemical; conditions: pH 7, 37° C., low concentration, read-out: Chemical stability at pH 7 half-life (t 1/2)
# Description: The chemical stability of a compound of the invention is followed kinetically at low cencentration at 37° C. in aqueous buffer solution at different pH values. The results in Table 4 show the half life (t 1/2) at pH 7, that is the time period after which half the amount of the original compound remains unchanged.
# [4] = system: gastric acid secretion; experiment: Inhibition of Gastric Acid Secretion in the Conscious Female Rat, iv; type: in vivo, rat (Sprague-Dawley)
# Description: as §1
# Female rats of the Sprague-Dawley strain are used. They are equipped with cannulated fistulae in the stomach (lumen) for collection of gastric secretions. A fourteen days recovery period after surgery is allowed before testing is commenced.
# Before secretory tests, the animals are deprived of food but not water for 20 h. The stomach is repeatedly washed through the gastric cannula, and 6 ml of Ringer-Glucose given s.c. Acid secretion is stimulated with infusion during 3.5 h (1.2 ml/h, s.c.) of pentagastrin and carbachol (20 and 110 nmol/kg h, respectively), during which time gastric secretions are collected in 30-min fractions. Test substances or vehicle are given iv at 90 min after starting the stimulation, in a volume of 1 ml/kg. Gastric juice samples are titrated to pH 7.0 with NaOH, 0.1 mol/L, and acid output is calculated as the product of titrant volume and concentration. Further calculations are based on group mean responses from 4-7 rats. The acid output during the periods after administration of test substances or vehicle are expressed as fractional responses, setting the acid output in the 30-min period preceding administration to 1.0. Percentage inhibition is calculated from the fractional responses elicited by test compound and vehicle. […]
# [5] = Bioavailability in the Male Rat (id vs iv AUC); type: in vivo, rat (Sprague-Dawley); conditions: blood, 4 umol/kg, intraduodenal vs iv, 4 μmol/kg, read-out: Bioavailability F %, Rat
# Description: Biovailability is assessed by calculating the quotient between the area under plasma concentration (AUC) curve following intreduodenal (id) administration and intravenous (iv) administration from the rat.
# Male adult rats of the Sprague-Dawley strain were used. One day, prior to the experiments, all rats were prepared by cannulation of the left carotid artery under anaesthesia. The rats used for the intravenous experiments, were also cannulated in the jugular vein. (Ref. V. Popovic and P. Popovic, J Appl Physiol 1960;15,727-728). The rats used for the intraduodenal experiments, were also cannulated in the upper part of the duodenum. The cannulas were exteriorized at the nape of the neck. The rats were housed individually after surgery and were deprived of food, but not water, before administration of the test substances. The same dose (4 μmol/kg) were given iv and id as a bolus for about one minute (2 ml/kg).
# Blood samples (0.1-0.4 g) were drawn repeatedly from the carotid artery at intervals up to 4 hours after given dose. […]
# The area under the blood concentration vs time curve, AUC, was determined by the linear trapezoidal rule and extrapolated to infinity by dividing the last determined blood concentration by the elimination rate constant in the terminal phase.
# The systemic bioavailability (F %) following intraduodenal administration was calculated as [formula]
Compound,ED50 [1],Percent inhibition of 400 μmol/kg on the uptake of ^125 I in the thyroid gland [2],half-life [3],"ED50 ([4]; 2 h, iv, pentagastrin and carbachol stimulated, second hour after drug, read-out: Inhibition of acid secretion iv administration ED50, Rat)",bioavailability [5],"inhibition of acid secretion, Rat ([4]; 1 μmol/kg iv)"
"COC(=O)c1cc2nc([S+]([O-])Cc3nccc(OC)c3OC)[nH]c2cc1C (centres unmarked) [Example 3, 5-Carbomethoxy-6-methyl-2-[[(3,4-dimethoxy-2-pyridinyl)methyl]sulfinyl]-1H-benzimidazole]",0.5 µmol/kg,0%,8 h,,,
"COc1ccnc(C[S+]([O-])c2nc3cc(C(C)=O)c(C)cc3[nH]2)c1OC (centres unmarked) [Example 4, 5-Acetyl-6-methyl-2-[[(3,4-dimethoxy-2-pyridinyl)methyl]sulfinyl]-1H-benzimidazole]",0.74 µmol/kg,-7%,7.83 h,0.9 µmol/kg,> 100%,
"CCOC(=O)c1ccc2[nH]c([S+]([O-])Cc3nccc(OC)c3OC)nc2c1 (centres unmarked) [Example 5, 5-Carbethoxy-2-[[(3,4-dimethoxy-2pyridinyl)methyl]sulfinyl]-1H-benzimidazole]",,-6%,4.5 h,,,
"CC(=O)c1cc2nc([S+]([O-])Cc3nccc4c3OCCO4)[nH]c2cc1C (centres unmarked) [Example 2, 5-Acetyl-6-methyl-2-[[(3,4-ethylendioxy-2-pyridinyl)methyl]sulfinyl]-1H-benzimidazole]",,,,,,14%
